Test results as given in patent US20230091848A1, “DISEASE DETECTION AND TREATMENT BASED ON PHENYLACETYL GLUTAMINE LEVELS” (The Cleveland Clinic Foundation, priority 2020, published 2023).
Numbered stars: 1 amine (or outer) side, 2 acyl side, 3 side chain; on linkers, the order of the positions; unused ones are H or OH. Bridge positions count the residues as written; N and C are the ends. Square brackets hold non-standard residues; d marks the D form. Peptide text beside a SMILES is read from it. X1 = CC(=O)NC(C(=O)OC(C(C)C)C(N[*:1])C(=O)[*:2])C(O)C(C)C; PhLac = O=C(O)[CH](O)Cc1ccccc1; NMeT = CN[CH](C(=O)O)[CH](C)O; NMeA = CN[CH](C)C(=O)O; NMeDha = C=C(NC)C(=O)O

Experiments:
α2B ADR = target: T1, α2B ADR (Homo sapiens, UniProt P18089); experiment: DMR in α2B-HEK293 (stable) cells; type: cell-based
T1 construct: expressed in transfected cells
T1 sequence (P18089 1-450): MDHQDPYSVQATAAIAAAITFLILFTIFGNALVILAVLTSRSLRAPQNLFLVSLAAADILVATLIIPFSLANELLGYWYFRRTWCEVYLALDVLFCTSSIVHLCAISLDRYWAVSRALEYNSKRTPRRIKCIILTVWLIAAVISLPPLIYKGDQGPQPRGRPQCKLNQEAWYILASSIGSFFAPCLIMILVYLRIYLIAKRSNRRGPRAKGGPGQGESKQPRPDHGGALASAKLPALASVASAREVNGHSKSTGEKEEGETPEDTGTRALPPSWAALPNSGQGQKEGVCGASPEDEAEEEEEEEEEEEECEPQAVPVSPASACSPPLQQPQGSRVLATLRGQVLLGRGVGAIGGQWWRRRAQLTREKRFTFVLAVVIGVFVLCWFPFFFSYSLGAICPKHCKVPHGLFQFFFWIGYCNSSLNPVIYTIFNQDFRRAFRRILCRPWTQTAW

α2A ADR = target: T2, α2A ADR (Homo sapiens, UniProt P08913); experiment: DMR in α2A-HEK293 (transient) cells; type: cell-based
T2 construct: DYK (FLAG, DYKDDDDK) (N); host or cells: HEK293 (transient, Lipofectamine 3000)
T2 sequence (P08913 1-465): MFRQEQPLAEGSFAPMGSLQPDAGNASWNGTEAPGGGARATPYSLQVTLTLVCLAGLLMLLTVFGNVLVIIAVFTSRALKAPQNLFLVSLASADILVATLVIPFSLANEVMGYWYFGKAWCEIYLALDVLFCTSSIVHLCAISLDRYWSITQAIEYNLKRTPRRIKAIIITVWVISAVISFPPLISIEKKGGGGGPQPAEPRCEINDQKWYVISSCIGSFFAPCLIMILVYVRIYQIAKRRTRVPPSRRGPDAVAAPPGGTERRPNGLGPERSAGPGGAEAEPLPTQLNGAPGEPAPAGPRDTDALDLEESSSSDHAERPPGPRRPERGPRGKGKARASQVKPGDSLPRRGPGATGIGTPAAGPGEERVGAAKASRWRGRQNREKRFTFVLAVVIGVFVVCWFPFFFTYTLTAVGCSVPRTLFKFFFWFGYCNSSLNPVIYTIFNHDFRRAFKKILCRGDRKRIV
Experimental: The cells were grown in DMEM (100 μL) media supplemented with FBS (10%), penicillin (100 U/mL) and streptomycin (100 μg/mL) in a humidified atmosphere at 37° C. in 5% CO2 for 1 day before proceeding for the DMR experiments. For gain of function studies of α2A ADR, parental HEK293 cells were transfected with pcDNA3.1(+)-N-DYK empty vector or with pcDNA3.1(+)-ADRA2A-N-DYK clone (clone id: OHu19050C-GenScript) using Lipofactamine 3000 Transfection kit-Invitrogen (Cat. L3000008). DMR studies were performed on transiently transfected cells after 2 days post transfection. Prior to run the DMR experiment, cells were washed with 1×HBSS buffer with HEPES (20 mM, pH 7.4) and allowed to temperature equilibrate for 1 h at room temperature in 100 μL of the same buffer. Basal DMR response were graphed for around 15 min to obtain a baseline read that defines the zero level and also ensures the signal is stable.

washed human platelets = experiment: cAMP assay in washed human platelets; type: cell-based
Experimental: Real-time (RT) PCR in MEG01 cells: Total RNA was isolated from MEG01 cells following TRIZOL RNA isolation protocol post 40 h of siRNA transfection. […] Real time (RT) PCR was carried out following TaqMan Gene Expression Assays protocol using RT primers and probes of ADRA2A (assay Id Hs01099503_s1), ADRA2B (assay Id Hs00265081 s1) and ADRB2 (assay Id Hs00240532_s1) from ThermoFisher Scientific. cAMP assay in MEG01, Platelets and HEK293 cells: Intracellular cAMP levels were measured using CatchPoint Cyclic-AMP Fluorescent Assay Kit from molecular devices (Cat. R8089). Briefly, MEG01 cells were washed with 1×HBSS buffer with HEPES (20 mM; pH 7.4) and re-suspended in stimulation buffer (1×HBSS, HEPES (20 mM); pH 7.4, IBMX (0.5 mM), Rolipram (0.1 mM) and BSA (0.1%)). The cells were further seeded into 96 well cell culture plates with a density of ˜100 k cells per well in 100 μL stimulation buffer. Similarly, human washed platelets re-suspended very gently in stimulation buffer and seeded into a 96-well cell culture plates with ˜4-6 million platelets per well in 100 μL stimulation buffer. Both the MEG01 cells and platelets were kept thereafter at 37° C. incubator for 10 min before addition of the inhibitors or test compounds. Following incubation with stimulation buffer, 10 μL (10× concentration) of modulators/inhibitors (when necessary) were added and kept for 15 min at 37° C. […] For the quantification of cAMP, the lysed sample (40 μL), buffer control and cAMP calibrators were added in appropriate wells of a 96-well clear bottom, black wall cAMP assay plates (provided in the kit). […] The plate was covered with aluminum foil and left at room temperature for at least 10 min before reading fluorescence intensity in a FlexStation 3 Multi-Mode Microplate Reader-Molecular devices. […] Intracellular Ca^2+ measurement: Intracellular Ca^2+ in MEG01, HEL92.1.7, parental HEK293, β2-HEK293 (stable) cells, empty vector (EV) transfected HEK293 cells, ADRA2A transfected HEK293 cells and in α2B-HEK293 stable cells was measured using FLIPR Calcium 5 Assay Kit-Molecular devices (Cat. R8186). […]

MEG01 cells [1] = experiment: cAMP assay in MEG01 cells; type: cell-based, human
Experimental: Real-time (RT) PCR in MEG01 cells: Total RNA was isolated from MEG01 cells following TRIZOL RNA isolation protocol post 40 h of siRNA transfection. […] Real time (RT) PCR was carried out following TaqMan Gene Expression Assays protocol using RT primers and probes of ADRA2A (assay Id Hs01099503_s1), ADRA2B (assay Id Hs00265081 s1) and ADRB2 (assay Id Hs00240532_s1) from ThermoFisher Scientific. cAMP assay in MEG01, Platelets and HEK293 cells: Intracellular cAMP levels were measured using CatchPoint Cyclic-AMP Fluorescent Assay Kit from molecular devices (Cat. R8089). Briefly, MEG01 cells were washed with 1×HBSS buffer with HEPES (20 mM; pH 7.4) and re-suspended in stimulation buffer (1×HBSS, HEPES (20 mM); pH 7.4, IBMX (0.5 mM), Rolipram (0.1 mM) and BSA (0.1%)). The cells were further seeded into 96 well cell culture plates with a density of ˜100 k cells per well in 100 μL stimulation buffer. Similarly, human washed platelets re-suspended very gently in stimulation buffer and seeded into a 96-well cell culture plates with ˜4-6 million platelets per well in 100 μL stimulation buffer. Both the MEG01 cells and platelets were kept thereafter at 37° C. incubator for 10 min before addition of the inhibitors or test compounds. Following incubation with stimulation buffer, 10 μL (10× concentration) of modulators/inhibitors (when necessary) were added and kept for 15 min at 37° C. […] The test compounds were made in buffer T (1×HBSS, HEPES (20 mM); pH 7.4, IBMX (0.5 mM) and Rolipram (0.1 mM)). The reaction was stopped by adding 50 μL of lysis buffer (provided in the kit CatchPoint Cyclic-AMP Fluorescent Assay Kit Cat. R8089-Molecular Devices), further added with IBMX (0.5 mM) and Rolipram (0.1 mM)) and agitated for 10 min in a plate shaker to facilitate cell lysis. Lysed cells are immediately proceeded to cAMP assay. For the quantification of cAMP, the lysed sample (40 μL), buffer control and cAMP calibrators were added in appropriate wells of a 96-well clear bottom, black wall cAMP assay plates (provided in the kit). Thereafter, reconstituted rabbit anti-cAMP antibody (40 μL) was added to all the wells and mix for 5 min on a plate shaker to ensure mixing. In the next step, reconstituted HRP-cAMP conjugate (40 μL) was added to every well, mixed properly and kept at room temperature for 2 h. The plate contents were aspirated thereafter and washed with wash buffer (300 μL (provided in the kit)) 4 times. Spotlight red substrate (provided in the kit) was added to each well minimizing the time between starting and finishing in dark. The plate was covered with aluminum foil and left at room temperature for at least 10 min before reading fluorescence intensity in a FlexStation 3 Multi-Mode Microplate Reader-Molecular devices. […] For cAMP assay in adherent cell lines, parental HEK293, and β2-HEK293 (stable) cells were seeded into 96-well cell culture microplates with approximately 50 k cells per well in DMEM (100 μL) media supplemented with FBS (10%), penicillin (100 U/mL) and streptomycin (100 μg/mL) in a humidified atmosphere at 37° C. in 5% CO2. Cells were grown for 24 h before proceeding for cAMP experiment following similar method as described for MEG01 cells. Intracellular Ca^2+ measurement: Intracellular Ca^2+ in MEG01, HEL92.1.7, parental HEK293, β2-HEK293 (stable) cells, empty vector (EV) transfected HEK293 cells, ADRA2A transfected HEK293 cells and in α2B-HEK293 stable cells was measured using FLIPR Calcium 5 Assay Kit-Molecular devices (Cat. R8186). […]

MEG01 cells [2] = experiment: Dynamic mass redistribution (DMR) in MEG01 cells; type: cell-based, human; details: for DMR response to ATP after ADR inhibitors: ATP 50 μM; for PAGln-induced DMR response after ADR inhibitors: 30 min
Experimental: (§1) Before proceeding for the experiments, cells were subjected to overnight incubation in reduced serum media opti-MEM. […] The cells were briefly centrifuged at room temperature at low speed (100 g for 10-15 sec) to allow settling down the cells at the bottom of the plate. After that, cells were allowed to temperature equilibrate for 1 h at room temperature prior to run DMR measurement. Firstly, basal DMR responses were graphed for around 15 min to obtain a baseline read that defines the zero level and also ensures the signal is stable. […] DMR response signal was recorded for 60-90 minutes post compound of interest addition.

[3] = test system: human platelet rich plasma (PRP); experiment: Platelet aggregometry in platelet rich plasma; type: cell-based; details: inhibitor 10 μM; PAGln 100 μM; ADP 2 μM
Experimental: ADP (up to 4 μM), TRAP6 (up to 10 μM) and collagen (up to 1.0 μg/mL) were used as indicated to initiate aggregation with constant stirring (600 rpm).

HEL92.1.7 cells = experiment: Dynamic mass redistribution (DMR) in HEL92.1.7 cells; type: cell-based, human
Experimental: as §1

[4] = vs parental HEK293, PAGln 100 μM, B-HT933 50 μM

CCN1CCc2nc(N)oc2CC1 [B-HT933]
agonist-evoked DMR response (α2B ADR; [4]): elevated B-HT933-elicited DMR response
agonist-evoked DMR response (α2A ADR; [4]): elevated B-HT933-elicited DMR response

Cc1ccc(OCC(O)C(C)NC(C)C)c2c1CCC2 (stereo not drawn) [ICI118,551]
intracellular cAMP production after ISO treatment, with ADR inhibitors (washed human platelets): reduced
PAGln induced intracellular cAMP production after ADR inhibitors (washed human platelets; PAGln 5 min exposure): inhibited PAGln (5 min exposure) induced intracellular cAMP production
intracellular cAMP production after ISO treatment, with ADR inhibitors (MEG01 cells [1]): reduced
PAGln induced intracellular cAMP production after ADR inhibitors (MEG01 cells [1]; PAGln 100 μM, 5 min exposure, inhibitor 10 μM): inhibited PAGln (5 min exposure) induced intracellular cAMP production
DMR response to ATP after ADR inhibitors (MEG01 cells [2]; inhibitor 10 μM): remained unchanged
DMR response of isoproterenol (ISO) after ADR inhibitors (MEG01 cells [2]; ISO 10 μM, inhibitor 10 μM): diminished
PAGln-induced DMR response after ADR inhibitors (MEG01 cells [2]; PAGln 100 μM, inhibitor 10 μM): substantially reduced

COC1(C2=NCCN2)COc2ccccc2O1 (stereo not drawn) [RX821002]
PAGln induced hyperresponsiveness of platelet aggregation [3]: attenuated the PAGln induced hyperresponsiveness
B-HT933-elicited DMR response after ADR inhibitor (α2B ADR): attenuated by RX821002
PAGln-induced DMR response after ADR inhibitor (α2B ADR; inhibitor 10 μM, 30 min): reversed
DMR response to ATP after ADR inhibitors (MEG01 cells [2]; inhibitor 10 μM): remained unchanged
DMR response of B-HT933 after ADR inhibitor (MEG01 cells [2]; B-HT933 50 μM, inhibitor 10 μM): appropriately inhibited
PAGln-induced DMR response after ADR inhibitors (MEG01 cells [2]; PAGln 100 μM, inhibitor 10 μM): substantially reduced
B-HT933-elicited DMR response after ADR inhibitor (α2A ADR): attenuated by RX821002
PAGln-induced DMR response after ADR inhibitor (α2A ADR; inhibitor 10 μM, 30 min): reversed

CN=c1nc(-c2ccccc2)n(-c2ccccc2)s1 [SCH-202676]
PAGln-evoked cAMP production after GPCR modulators (washed human platelets; pretreatment with modulator): inhibited PAGln-evoked cAMP production
PAGln-evoked cAMP production after GPCR modulators (MEG01 cells [1]; pretreatment with modulator): inhibited PAGln-evoked cAMP production
PAGln-induced DMR response after G-protein modulators (MEG01 cells [2]; PAGln 100 μM, PTX 100 ng/mL, CTX 1 μg/mL, YM-254890 0.5 μM, SCH-202676 1 μM): significantly reduced

C=C1C(=O)NC(C)C(=O)N(C)C(C)C(=O)NC(C(OC(=O)C(NC(C)=O)C(O)C(C)C)C(C)C)C(=O)N(C)C(C(C)OC)C(=O)OC(C)C(NC(C)=O)C(=O)OC(Cc2ccccc2)C(=O)N1C (stereo not drawn) [YM-254890] (Ac-T[PhLac][NMeDha]A[NMeA][X1][NMeT](Me); ester 1-C; configuration not given here)
PAGln induced DMR response after G-protein modulators (HEL92.1.7 cells): significant reduction in PAGln induced DMR response
